# Tests used:
# [1] = Phase 2 study: safety assessments (adverse events); assay type: in vivo, human; details: for patients who discontinued the study due to adverse drug reactions: Main Study
# Method: For safety assessments, safety was assessed through the summary of adverse events (AE), physical examinations and electrocardiogram (ECG) measurements, vital signs (e.g., blood pressure, pulse rate, respiratory rate and body temperature), body weight and laboratory data (e.g., haemtaology, biochemistry and urinalysis). All AEs (both serious and non-serious) were derived from spontaneous, unsolicited reports of patients, by observation and by routine open questions. The AE reporting extended from date of informed consent until completion of the final visit. Any ongoing AE at EOS visit was followed until the outcome was evident and resolved, clinically stabilized or a plausible explanation was found. Pre-existing diseases including deranged laboratory values (before participating in the study) were not considered AEs, unless the disease worsened during the study period. Signs and symptoms clearly associated with the disease under study (including symptoms of disease progression) were reported as AEs if they were newly emergent, or were determined as severe or worsening, or if deterioration of disease-related signs and symptoms to be caused directly by the study drug. Physical examination, vital signs (measured in a sitting position after resting for at least 3 minutes), ECG (recorded by qualified personnel after the patient had been resting in the supine position for at least 3 minutes) and clinical laboratory examinations were done as part of safety assessments. Abnormal laboratory values/ECGs/vital signs/physical examination were reported as AEs only if the abnormality was clinically relevant or significant or believed that the abnormality must be reported as an AE. Any dose (and associated symptoms) given to the patient that exceeded the dose prescribed to the patient, at a minimum, was recorded as a non-serious AE in the patient file and CRF/electronic CRF. Any case of overdose leading to an AE or SAE had to be reported to medical monitor according to reporting requirements. In case of an accidental overdose, the patient had to be monitored by for any adverse clinical events, as deemed necessary.
# [2] = Pharmacokinetic analysis after oral administration of the formulation to rats; assay type: in vivo; details: male, Sprague Dawley, rat, in vivo, po, 5 mg/kg
# Method: Male Sprague Dawley Rats (weight 225±25 gm; aged 8 to 10 weeks) were administered orally with the formulation. Each of the tested compounds was dosed at 5 mg/kg at a dose volume of 1 mL/kg. Blood samples were collected at time points 0.25, 0.5, 1, 2, 4, 6, 8 and 24 hours and analyzed the plasma concentrations of administered compound and calculated PK parameters. The plasma concentrations of the tested compounds were measured by liquid chromatography with tandem mass spectrometry (LCMS-MS) using […] extraction method. The plasma concentration-time data was subjected to Non-Compartmental Analysis using Phoenix WinNonlin® (Version 5.3) software to assess the pharmacokinetic parameters. Peak plasma concentrations (Cmax) and time for the peak plasma concentrations (Tmax) were the observed values. The area under the concentration time curve (AUC) was calculated by linear trapezoidal rule.
# [3] = Non-clinical studies: hypocalcaemia at efficacious doses; assay type: in vivo
# [4] = First-in-human Phase 1 single- and multiple-dose study; assay type: in vivo; details: healthy subjects
# cytochrome P450 2D6 = cytochrome P450 2D6 (Homo sapiens, UniProt P10635); experiment: Cytochrome P450 2D6 liability; assay type: in vitro ADME
# Chain of cytochrome P450 2D6 (P10635 whole entry, species assumed): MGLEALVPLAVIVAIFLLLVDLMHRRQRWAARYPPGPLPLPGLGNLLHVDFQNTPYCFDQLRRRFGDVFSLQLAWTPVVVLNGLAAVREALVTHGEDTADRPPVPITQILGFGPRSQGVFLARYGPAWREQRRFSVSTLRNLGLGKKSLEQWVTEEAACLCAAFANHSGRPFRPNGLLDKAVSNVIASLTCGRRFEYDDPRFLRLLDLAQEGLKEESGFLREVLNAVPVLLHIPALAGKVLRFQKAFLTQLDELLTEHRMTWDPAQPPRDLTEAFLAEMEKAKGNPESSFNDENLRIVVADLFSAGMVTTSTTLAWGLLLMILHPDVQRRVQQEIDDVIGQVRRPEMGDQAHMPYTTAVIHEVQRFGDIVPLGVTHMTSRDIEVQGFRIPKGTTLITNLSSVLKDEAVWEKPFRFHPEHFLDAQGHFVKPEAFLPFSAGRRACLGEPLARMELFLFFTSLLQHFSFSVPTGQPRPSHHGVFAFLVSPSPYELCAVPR
# [5] = patients not on dialysis, 5 mg BID (N = 16)
# [6] = patients not on dialysis, 10 mg QD (N = 37)
# [7] = patients not on dialysis, Total in Compound 3 Group (N = 71)
# [8] = patients on dialysis, 10 mg QD (N = 34)
# [9] = patients on dialysis, 20 mg BID (N = 19)
# [10] = patients on dialysis, 25 mg QD (N = 35)
# [11] = patients on dialysis, Total in Compound 3 Group (N = 88)
smiles,measurement,setting,value
"Cc1ccc([C@@H]2C[C@H](CN[C@H](C)c3cccc4ccccc34)Oc3ccccc32)cc1C(=O)O.Cl [Compound 3, 2-methyl-5-((2R,4S)-2-((((R)-1-(naphthalen-1-yl)ethyl)amino)methyl)chroman-4-yl)benzoic acid hydrochloride]",patients with hypocalcaemia considered by the investigator to be related to the study drug,"[1]; 1 patient each in 10 mg QD, 25 mg QD and 20 mg BID arms",3 patients
same,symptomatic hypocalcemic effect,"[1]; CKD patients, dose range 5 mg to 50 mg",no symptomatic hypocalcemic effect
same,patients who discontinued the study due to adverse drug reactions,[1]; not on dialysis group,None
same,patients who discontinued the study due to adverse drug reactions,[1]; on dialysis group,None
same,adverse events of hyperphosphatemia,"[1]; Phase 2 study, all patients",no adverse events of hyperphosphatemia
same,patients experiencing adverse events of hypocalcaemia or hyperphosphatemia,[1]; patients not on dialysis,none
same,Adverse event incidence: Diarrhea,[1]; [5],0%
same,Adverse event incidence: Nausea,[1]; [5],0%
same,Adverse event incidence: Vomiting,[1]; [5],0%
same,Adverse event incidence: Diarrhea,[1]; [6],2.7%
same,Adverse event incidence: Nausea,[1]; [6],0%
same,Adverse event incidence: Vomiting,[1]; [6],0%
same,Adverse event incidence: Diarrhea,[1]; [7],2.7%
same,Adverse event incidence: Nausea,[1]; [7],0%
same,Adverse event incidence: Vomiting,[1]; [7],0%
same,Adverse event incidence: Diarrhea,[1]; [8],0%
same,Adverse event incidence: Nausea,[1]; [8],0%
same,Adverse event incidence: Vomiting,[1]; [8],0%
same,Adverse event incidence: Diarrhea,[1]; [9],0%
same,Adverse event incidence: Nausea,[1]; [9],5.3%
same,Adverse event incidence: Vomiting,[1]; [9],0%
same,Adverse event incidence: Diarrhea,[1]; [10],0%
same,Adverse event incidence: Nausea,[1]; [10],0%
same,Adverse event incidence: Vomiting,[1]; [10],0%
same,Adverse event incidence: Diarrhea,[1]; [11],0%
same,Adverse event incidence: Nausea,[1]; [11],5.3%
same,Adverse event incidence: Vomiting,[1]; [11],0%
same,AUC(0-t),[2],15 ± 4 µM·h
same,Cmax,[2],3.4 ± 1 µM
same,Tmax,[2],0.5 to 2 h
same,hypocalcaemia,[3],No hypocalcaemia
same,safety and tolerability,[4],safe and well tolerated
same,cytochrome P450 2D6 liabilities,cytochrome P450 2D6,devoid
